Source: patent US11352350B2, “IRAK degraders and uses thereof” (Kymera Therapeutics, Inc., priority 2018, dated 2022)
Where two headings read alike, the source gives them in different places.

Legend:
[1] = system: TMD8 tumor cells; assay: TMD8 large B lymphoma xenograft model in C.B. 17 SCID mice; assay type: in vivo, mouse; settings: FIG. 6 A-C
Experimental: Cell Culture: The OCI-LY10 or TMD8 tumor cells were maintained as suspension in RPMI1640 medium supplemented with 10% fetal bovine serum, 100 U/mL penicillin and 100 μg/mL streptomycin at 37° C. in an atmosphere of 5% CO2 in air. The tumor cells were routinely subcultured twice weekly by trypsin-EDTA treatment. The cells growing in an exponential growth phase were harvested and counted for tumor inoculation.
Animals: C.B. 17 SCID, female, 6-8 weeks, weighing approximately 16-18 g were used. Animals were housed and maintained according to IACUC protocols. […]
Assignment to Groups: Before commencement of treatment, all animals were weighed and the tumor volumes were measured. […]
Observation: After tumor inoculation, the animals were checked daily for morbidity and mortality. […] Mortality and observed clinical signs were recorded for individual animals in detail.
Data Collection: Tumor volumes were measured in two dimensions using a caliper, and the volumes were expressed in mm^3 using the formula: “V=(L×W×W)/2, where V is tumor volume, L is tumor length (the longest tumor dimension) and W is tumor width (the longest tumor dimension perpendicular to L).
At termination: At pre-determined time points based on study design, animals were humanely sacrificed by CO2. […] Compound was determined in tumor and plasma using LC/MS with calibrated standards.

[2] = system: OCI-LY10 cells; assay: In vitro combination studies in OCI-LY10 (Chou-Talalay); assay type: cell-based, human
Experimental: The ABC-DLBCL cell line OCI-LY10 was MV4-11 cells were maintained in IMDM (Invitrogen, supplemented with 20% heat inactivated fetal bovine serum (Life Technologies, Grand Island, N.Y) plus+BME. Cultures were maintained in a humidified atmosphere including 5% CO2. Studies were performed using OCI-LY10 cells in vitro to evaluate the anti-proliferative effect of a combination of two agents together on cell growth. The cell counts were measured by ATP quantitation using the Promega Cell Titer Glo kit and luminescence values corresponded to the amount of ATP in a given well. Compounds evaluated for synergy were tested in a range which was bracketed around the IC50's. The compounds were plated to a 384 well plate in a matrix format which includes increasing concentrations of each drug in the combination in a constant ratio, in addition to the effect of each compound alone in the study. […] DMSO concentration was less than 0.2% v/v.
The drug combination analysis was performed utilizing the Chou-Talalay method [Chou TC Pharmacological Reviews 2006]. Maximum and minimum inhibition (DMSO alone) controls were used in each plate to calculate fraction affected (Fa) of a test well. […] Synergy was determined using the software package Calcusyn by Biosoft. Graphs representing values of combination index (CI) versus Fractional effect (Fa) known as Fa-CI plots were generated and synergy was evaluated.

[3] = system: SU-DHL6; assay: SU-DHL6 viability, CTG; assay type: cell-based; settings: Homo sapiens, SU-DHL-6
[4] = system: cytokines induced by TLR stimuli; assay: Human whole blood cytokine release assays; assay type: cell-based; settings: compared with IRAK4 inhibition with PF-06550833, FIG. 16
Experimental: Fresh human whole blood was collected in Na Heparin tubes and received from […] same day as collection. 200 uL of whole blood was aliquoted per well into a 96 well plate. Whole blood was pre-incubated with compounds overnight at 37° C., 5% CO2. Following compound incubation, samples were stimulated with […] (invivogen #tlrl-r848), LPS 10 ng/mL (Sigma #L2637) or IL-1β 25 ng/mL (R&D systems 201-LB) and incubated for an additional 5 hours. At the end of the assay, blood was spun down for 15 min at 4° C. and plasma was collected and immediately stored at −80° C. Cytokine and chemokine levels were measured by custom ordered U-plex MSD panels (panel 1: IFNy, IL-10, IL-1β, IL-6, IL-8, TNFα) and (panel 2: IP-10, MIP1-α, MIP-1β, IL-12/IL-23p40, GROα).

SMILES | activity in TMD8 xenograft model [1] | apoptosis, combined with a BTK inhibitor ([2]; OCI-LY10 bearing MYD88 L265P and CD79 mutations, within 72 h, FIG. 12) | synergy with BTK inhibition vs cell viability ([2]; four day Cell Titer Glo read out) | IC50 ([3]; MYD88 WT Lines, read-out: SU-DHL6 Viability, CTG IC50) [nM] | IC50 ([3]; MYD88 WT, read-out: SU-DHL6 CTG IC50) [nM] | range of cytokines inhibited, induced by different TLR stimuli [4]
CN(CCCOCCCc1cccc2c1n(C)c(=O)n2C1CCC(=O)NC1=O)C[C@H]1CC[C@H](n2cc(NC(=O)c3coc(-c4ccnc(NCC5CC5)c4)n3)c(C(F)F)n2)CC1 (mixture of isomers) [I-30, 2-[2-(Cyclopropylmethylamino)-4-pyridyl]-N-[3-(difluoromethyl)-1-[4-[[3-[3-[1-(2,6-dioxo-3-piperidyl)-3-methyl-2-oxo-benzimidazol-4-yl]propoxy]propyl-methyl-amino]methyl]cyclohexyl]pyrazol-4-yl] oxazole-4-carboxamide] | active | greater than additive increase in apoptosis | synergistic | – | – | –
CN(C[C@H]1CC[C@H](n2cc(NC(=O)c3coc(-c4ccnc(NCC5CC5)c4)n3)c(C(F)F)n2)CC1)C1CCN(Cc2cccc3c2n(C)c(=O)n3C2CCC(=O)NC2=O)CC1 (stereo partly drawn) [I-75, 2-(2-((cyclopropylmethyl)amino)pyridin-4-yl)-N-(3-(difluoromethyl)-1-((1r,4r)-4-(((1-((1-(2,6-dioxopiperidin-3-yl)-3-methyl-2-oxo-2,3-dihydro-1H-benzo[d]imidazol-4-yl)methyl)piperidin-4-yl)(methyl)amino)methyl)cyclohexyl)-1H-pyrazol-4-yl)oxazole-4-carboxamide] | – | – | – | 1600 | 1600 | inhibits a broader range of cytokines
